Data reported in patent US7267821B2, “Binding member which binds to both Lewisy and Lewisb haptens, and its use for treating cancer” (Scancell Limited, priority 2001, dated 2007).

Legend:
Format in all cases: cell-based
C170 cells = test: 5FU and SC101/29, crystal violet cell number after 5 days; settings: 5 Fluorouracil 0.25 μg/ml alone
Procedure: 3×10^3 C170 cells were plated into microtitre plates and left overnight to adhere. 5FU was added to a final concentrations of 0.25 and 0.5 μg/ml .SC101/29 antibody was also added at concentration of 1-50 μg/ml. […] However, in combination with a non-toxic dose of 5 Fluorouracil (0.25 μg/ml) there was a 70% reduction in cell growth.

Colorectal C170 cells = test: Cyto Death ELISA for fragmented DNA, with or without cisplatin; settings: cisplatin at 3 μg/ml alone
Procedure: The cultures were then washed once and incubated in goat anti-mouse antibody at 100 μg/ml for 30 minutes at room temperature. The cultures were then re-washed and left over night in culture medium with or without cisplatin. The following day the cultures were washed, lysed and tested for the presence of fragmented DNA by a Cyto Death ELISA (Roche). The results were recorded by optical Density measurements at 405 nm.

[1] = tested on: C170 colorectal tumour cells; test: Cisplatin then SC101/29, crystal violet viable cells after 4 days; parameters: dose or concentration left out as unconfirmed; settings: cisplatin alone
Procedure: […] The cells were left for 4 days when the number of viable cells was determined by crystal violet staining and optical density reading at 550 nm. […] The combination of drug and antibody are synergistic, inducing a 50% reduction in cell growth.

SMILES | toxicity of dose to C170 cells (C170 cells) | apoptosis (fragmented DNA) (Colorectal C170 cells) | inhibition of C170 cell growth [1] [%]
O=c1[nH]cc(F)c(=O)[nH]1 [5 Fluorouracil] | non-toxic | – | –
N.N.[Cl][Pt][Cl] [cisplatin] | – | induces apoptosis | 10
